Results taken from patent US20250090540A1, “PI3K-ALPHA INHIBITORS AND METHODS OF USE THEREOF” (Relay Therapeutics, Inc., priority 2021, published 2025).
Where two headings read alike, the source gives them in different places.

Columns and labels:
[1] = molecular target: H1047R PIK3CA enzyme (Homo sapiens, UniProt P42336, H1047R); experiment: ADP-Glo Biochemical PIK3CA Kinase Assay
[2] = cells; conditions: Homo sapiens, MCF-10A, read-out: MCF10A I50
[3] = ADP-Glo biochemical PIK3CA kinase assay

H1047R PIK3CA enzyme, sequence (P42336 whole entry H1047R): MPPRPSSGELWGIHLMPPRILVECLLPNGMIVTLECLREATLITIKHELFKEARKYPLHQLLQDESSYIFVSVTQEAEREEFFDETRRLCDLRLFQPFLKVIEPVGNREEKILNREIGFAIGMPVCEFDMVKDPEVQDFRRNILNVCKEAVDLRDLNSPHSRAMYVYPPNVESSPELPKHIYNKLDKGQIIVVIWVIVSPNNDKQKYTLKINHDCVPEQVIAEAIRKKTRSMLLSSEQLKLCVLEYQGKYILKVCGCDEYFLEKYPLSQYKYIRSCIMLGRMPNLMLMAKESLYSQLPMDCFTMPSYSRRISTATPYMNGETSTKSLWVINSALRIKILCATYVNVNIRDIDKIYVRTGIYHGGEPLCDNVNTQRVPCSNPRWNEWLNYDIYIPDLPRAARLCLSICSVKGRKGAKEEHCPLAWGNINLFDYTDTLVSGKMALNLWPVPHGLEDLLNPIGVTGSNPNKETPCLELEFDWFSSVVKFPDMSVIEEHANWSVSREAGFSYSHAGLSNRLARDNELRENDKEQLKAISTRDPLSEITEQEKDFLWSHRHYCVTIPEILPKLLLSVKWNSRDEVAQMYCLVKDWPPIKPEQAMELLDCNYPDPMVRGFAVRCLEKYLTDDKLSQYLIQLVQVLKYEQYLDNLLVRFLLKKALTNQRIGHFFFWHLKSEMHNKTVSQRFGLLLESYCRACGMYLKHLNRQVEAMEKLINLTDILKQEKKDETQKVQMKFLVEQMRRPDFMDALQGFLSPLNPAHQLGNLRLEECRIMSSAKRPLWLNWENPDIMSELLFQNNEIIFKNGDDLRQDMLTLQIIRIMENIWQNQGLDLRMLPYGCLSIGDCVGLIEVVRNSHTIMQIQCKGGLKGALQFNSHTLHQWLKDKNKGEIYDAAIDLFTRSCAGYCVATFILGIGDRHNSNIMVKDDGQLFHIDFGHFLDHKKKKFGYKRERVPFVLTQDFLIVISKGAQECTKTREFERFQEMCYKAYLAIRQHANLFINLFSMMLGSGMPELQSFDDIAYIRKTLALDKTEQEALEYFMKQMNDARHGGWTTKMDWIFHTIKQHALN
H1047R PIK3CA enzyme, sequence (P27986 whole entry partner): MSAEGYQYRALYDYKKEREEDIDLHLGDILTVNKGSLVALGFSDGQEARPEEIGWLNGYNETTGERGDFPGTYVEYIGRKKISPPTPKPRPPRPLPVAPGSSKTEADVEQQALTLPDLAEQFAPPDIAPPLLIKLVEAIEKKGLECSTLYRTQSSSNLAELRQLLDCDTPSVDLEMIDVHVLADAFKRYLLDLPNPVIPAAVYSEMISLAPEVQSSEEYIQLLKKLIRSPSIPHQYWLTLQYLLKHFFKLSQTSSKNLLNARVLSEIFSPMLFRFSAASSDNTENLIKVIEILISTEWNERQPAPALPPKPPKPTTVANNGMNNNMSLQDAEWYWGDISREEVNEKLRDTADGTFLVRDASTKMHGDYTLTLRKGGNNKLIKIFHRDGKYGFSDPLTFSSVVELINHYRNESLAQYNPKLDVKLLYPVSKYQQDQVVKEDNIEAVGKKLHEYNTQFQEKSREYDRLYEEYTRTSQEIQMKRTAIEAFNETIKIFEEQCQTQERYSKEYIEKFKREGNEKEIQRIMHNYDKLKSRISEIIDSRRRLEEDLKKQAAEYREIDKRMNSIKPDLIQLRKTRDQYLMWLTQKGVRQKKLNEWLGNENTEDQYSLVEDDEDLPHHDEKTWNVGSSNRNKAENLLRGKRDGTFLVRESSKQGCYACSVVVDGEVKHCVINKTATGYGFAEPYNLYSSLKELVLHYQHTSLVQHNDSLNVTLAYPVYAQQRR

Row | Structure (SMILES) | IC50 [1] [µM] | IC50 [2] [µM] | IC50 [1, 3] [µM]
1 | Cc1ccccc1Nc1ncc(CNS(=O)(=O)c2ccccc2)cc1NC(=O)c1cc(F)cc(C(F)(F)F)c1 [I-307] | 0.1 to 0.5 | 1 to 5 | 
2 | Cc1ccccc1Nc1cc(=O)[nH]cc1NC(=O)c1csc2ccccc12 [I-308] | 1 to 10 | 36 to 100 | 
3 | COC(=O)Cn1cc(NC(=O)c2csc3ccccc23)c(Nc2ccccc2C)cc1=O [I-309] | 1 to 10 | 36 to 100 | 
4 | Cc1ccccc1Nc1cc(=O)n(CC(=O)O)cc1NC(=O)c1csc2ccccc12 [I-310] | 10 to 100 | 36 to 100 | 
5 | Cc1ccccc1Nc1ncc(C(=O)NC2C[S+]([O-])C2)cc1NC(=O)c1csc2ccccc12 (centres unmarked) [I-311] | ≤ 0.1 | 1 to 5 | 
6 | CNC(=O)c1cnc(Nc2ccccc2C)c(NC(=O)c2cc(F)cc(OC(F)(F)F)c2)c1 [I-312] | 1 to 10 | 36 to 100 | 
7 | CNC(=O)c1cnc(Nc2ccccc2C)c(NC(=O)c2cc(F)cc(C#N)c2)c1 [I-313] | 1 to 10 | 10 to 36 | 
8 | O=C(NCCN1CCOCC1)c1cnc(N2CCOc3ccccc32)c(NC(=O)c2csc3ccccc23)c1 [I-316] | 1 to 10 | 36 to 100 | 
9 | C[C@]1(O)C[C@@H](NC(=O)c2cnc(N3CCOc4ccccc43)c(NC(=O)c3csc4ccccc34)c2)C1 [I-317] | 0.1 to 0.5 | 5 to 10 | 
10 | CC(=O)N1CC(NC(=O)c2cnc(N3CCOc4ccccc43)c(NC(=O)c3cc(F)cc(C(F)(F)F)c3)c2)C1 [I-329] | 0.5 to 1 | 10 to 36 | 
11 | Cc1ccccc1Nc1ncc(C(=O)NC2CS(=O)(=O)C2)cc1NC(=O)c1nsc2ccccc12 [I-330] | 0.1 to 0.5 | 1 to 5 | 
12 | Cc1ccccc1Nc1ncc(C(=O)NC2C[S+]([O-])C2)cc1NC(=O)c1nsc2ccccc12 (centres unmarked) [I-331] | 0.1 to 0.5 | 1 to 5 | 
13 | Cc1ccccc1Nc1ncc(C(=O)NC2CC(F)(F)C2)cc1NC(=O)c1nsc2ccccc12 [I-332] | 0.1 to 0.5 | 5 to 10 | 
14 | CNC(=O)c1cnc(Nc2ncccc2C)c(NC(=O)c2csc3ccccc23)c1 [I-335] | 0.5 to 1 | 10 to 36 | 
15 | CNC(=O)c1cnc(Nc2ccccc2C)c(NC(=O)c2csc3cnccc23)c1 [I-339] | 0.5 to 1 | 1 to 5 | 
16 | Cc1ccccc1Nc1cnc(C(=O)NC2CS(=O)(=O)C2)cc1NC(=O)c1cc(F)cc(C(F)(F)F)c1 [I-343] | 1 to 10 | < 1 | 
17 | O=C(NC1CC(F)(F)C1)c1cnc(N2CCOc3ccccc32)c(NC(=O)c2csc3ccccc23)c1 [I-347] | 0.1 to 0.5 | 1 to 5 | 

Row | Structure (SMILES) | IC50 [1] [µM] | IC50 [2] [µM] | IC50 [1, 3] [µM]
18 | Cc1ccccc1Nc1cc2nnc(N)n2cc1NC(=O)c1csc2ccccc12 [I-350] | 1 to 10 | 1 to 5 | 
19 | Cc1ccccc1Nc1ncc(C(=O)NC2(C)CS(=O)(=O)C2)cc1NC(=O)c1csc2ccccc12 [I-361] | 0.1 to 0.5 | 1 to 5 | 
20 | CNC(=O)c1cnc(Nc2ccccc2Cl)c(NC(=O)c2csc3ccccc23)c1 [I-362] | ≤ 0.1 | 10 to 36 | 
21 | Cc1cc(Cn2cc(NC(=O)c3csc4ccccc34)c(Nc3ccccc3C)cc2=O)no1 [I-390] | 0.1 to 0.5 | 10 to 36 | 
22 | Cc1ccccc1Nc1ncc(C(=O)N[C@H]2C[C@@H](O)C2)cc1NC(=O)c1cc(F)cc(C(F)(F)F)c1 [I-395] | 0.1 to 0.5 | 1 to 5 | 
23 | O=C(Nc1cc(C(=O)N[C@H]2C[C@H](O)C2)cnc1Nc1ccccc1)c1cc(F)cc(C(F)(F)F)c1 [I-396] | 0.1 to 0.5 | 1 to 5 | 
24 | Cc1ccccc1Nc1ncc(C(=O)N[C@H]2C[C@@H](O)C2)cc1NC(=O)c1csc2ccccc12 [I-397] | ≤ 0.1 | 5 to 10 | 
25 | Cc1ccccc1Nc1ncc(C(=O)NC2CC(=O)N(Cc3ccccc3)C2)cc1NC(=O)c1csc2ccccc12 (centres unmarked) [I-398] |  | 10 to 36 | 0.1 to 0.5
26 | Cc1ccccc1Nc1ncc(C(=O)N[C@H]2C[C@H](O)C2)cc1NC(=O)c1csc2ccccc12 [I-399] |  | 1 to 5 | ≤ 0.1
27 | CNC(=O)c1cnc(Nc2ccccc2C)c(NC(=O)c2csc3c2CCOC3)c1 [I-402] |  | 10 to 36 | 1 to 10
28 | CNC(=O)c1cnc(Nc2ncccc2OC)c(NC(=O)c2csc3ccccc23)c1 [I-405] |  | 36 to 100 | 10 to 100
29 | CNC(=O)c1cnc(Nc2ccccc2C)c(NC(=O)c2coc3c(F)cc(F)cc23)c1 [I-406] |  | 1 to 5 | 0.5 to 1
30 | CNC(=O)c1cnc(Nc2ccccc2OC)c(NC(=O)c2csc3ccccc23)c1 [I-407] |  | 36 to 100 | 1 to 10
31 | CNC(=O)c1cnc(Nc2ccccc2C)c(NC(=O)c2coc3ccc(Cl)cc23)c1 [I-408] |  | 1 to 5 | 0.5 to 1
32 | CNC(=O)c1cnc(Nc2ccccc2C)c(NC(=O)c2csc3ccc(OC)cc23)c1 [I-409] |  | 10 to 36 | 1 to 10
33 | Cc1ccccc1Nc1ncc(CNC2CS(=O)(=O)C2)cc1NC(=O)c1cc(F)cc(C(F)(F)F)c1 [I-411] |  | 10 to 36 | 1 to 10
34 | CNC(=S)c1cnc(Nc2ccccc2C)c(NC(=O)c2csc3ccccc23)c1 [I-412] |  | 10 to 36 | 0.1 to 0.5
